Active and inactive are the calls of the source. How the calls were made is not given here.
Tests used:
[1] = molecular target: Endothelial PAS domain-containing protein 1 (Homo sapiens) (UniProt Q99814); assay: potency against HIF reporters across cell lines – luminescence, panel, selectivity assay for HIF-2a inhibitor project, dose response (AID 651581); conditions: human cell HIF reporter
[2] = molecular target: Hypoxia-inducible factor 1-alpha (Homo sapiens) (UniProt Q16665); assay: as above; conditions: human cell HIF reporter, HIF-1a
Sequence of Hypoxia-inducible factor 1-alpha (Homo sapiens) (Q16665 whole entry, looked up): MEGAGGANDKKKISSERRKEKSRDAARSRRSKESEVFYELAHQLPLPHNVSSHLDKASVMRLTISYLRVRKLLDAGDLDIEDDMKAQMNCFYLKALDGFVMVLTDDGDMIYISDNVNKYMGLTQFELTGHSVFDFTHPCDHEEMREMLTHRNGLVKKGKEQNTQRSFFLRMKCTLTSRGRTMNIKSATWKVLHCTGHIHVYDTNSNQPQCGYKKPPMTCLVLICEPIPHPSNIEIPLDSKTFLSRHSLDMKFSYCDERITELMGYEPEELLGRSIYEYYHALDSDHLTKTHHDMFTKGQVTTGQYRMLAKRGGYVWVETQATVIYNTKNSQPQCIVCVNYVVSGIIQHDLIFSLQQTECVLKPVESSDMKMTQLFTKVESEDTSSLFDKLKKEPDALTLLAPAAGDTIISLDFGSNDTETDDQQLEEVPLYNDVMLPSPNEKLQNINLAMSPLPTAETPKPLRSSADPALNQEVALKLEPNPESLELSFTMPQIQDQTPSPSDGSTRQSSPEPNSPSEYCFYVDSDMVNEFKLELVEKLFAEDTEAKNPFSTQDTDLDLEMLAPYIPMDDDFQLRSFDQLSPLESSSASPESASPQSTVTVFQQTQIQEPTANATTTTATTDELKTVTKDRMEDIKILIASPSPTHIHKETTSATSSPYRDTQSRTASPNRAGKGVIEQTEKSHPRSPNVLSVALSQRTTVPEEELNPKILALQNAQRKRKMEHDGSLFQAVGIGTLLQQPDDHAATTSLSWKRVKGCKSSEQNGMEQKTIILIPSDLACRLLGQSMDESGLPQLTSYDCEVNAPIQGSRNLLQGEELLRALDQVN

Row | SMILES | IC50 ([1]; HIF-2a PANC, mean of runs) | IC50 ([1]; HIF-2a PANC, run 1) [µM] | IC50 ([1]; HIF-2a PANC, run 2) [µM] | IC50 ([1]; HIF-2a, mean of runs) | IC50 ([1]; HIF-2a, run 1) [µM] | IC50 ([1]; HIF-2a, run 2) [µM] | IC50 ([2]; mean of runs) | IC50 ([2]; run 1) [µM] | IC50 ([2]; run 2) [µM]
1 | CN(C)c1c([N+](=O)[O-])cc(N2C(=O)C=CC2=O)cc1[N+](=O)[O-] | inactive | 22.2 | 41.7 | 8.6 µM | 8.29 | 8.9 | 52.2 µM | 63.9 | 40.5
2 | CCN(CC)CCCC(C)n1c2nc(=O)[nH]c(=O)c-2nc2cc(Cl)ccc21 (centres undefined) | 3.53 µM | 2.56 | 4.5 | 9.02 µM | 8.43 | 9.61 | inactive | 18.1 | 15.8
3 | CCOC(=O)c1cccc(NC(=O)Nc2ccc(OCC)cc2)c1 | – | < 30 | 32.7 | – | 11.2 | < 10 | – | > 99 | > 99
4 | O=C1C=CC(=O)N1c1ccccc1N1C(=O)C=CC1=O | > 99 µM (inactive) | > 99 | > 99 | inactive | 13.4 | 13.2 | inactive | 40.9 | 34.6
5 | CC(C)COc1ccc(C(=S)N2CCCC2)cc1 | 14.5 µM | 13.6 | 15.5 | 4.91 µM | 4.41 | 5.42 | – | > 99 | > 99
6 | Cc1c(CCC(=O)NCCC(=O)O)c(=O)oc2c(C)c3oc4c(c3cc12)CCCC4 | 2.65 µM | 2.34 | 2.96 | 3.08 µM | 2.85 | 3.32 | inactive | 1.23 | 14.5
7 | Cc1c(CCC(=O)N2CCC[C@H]2C(=O)O)c(=O)oc2c(C)c3oc4c(c3cc12)CCCC4 | 1.72 µM | 1.8 | 1.64 | 4.13 µM | 4.63 | 3.63 | 44.7 µM | 72.4 | 17
8 | O=C(O)c1cccc(CSc2nnc(COc3ccccc3)o2)c1 | – | > 99 | 18.8 | 6.36 µM | 6.48 | 6.23 | – | > 99 | > 99
9 | N#Cc1ccccc1COc1ccc(/C=C/C(=O)O)cc1 | 0.92 µM | 1.53 | 0.311 | 0.391 µM | 0.37 | 0.412 | 1.34 µM | 1.56 | 1.12
10 | NNC(=O)COc1ccc(-c2nccc(-c3ccc(F)cc3)n2)cc1 | 2.37 µM | 2.39 | 2.34 | 2.66 µM | 2.56 | 2.75 | inactive | 3.37 | 1.1
11 | CC(C)(C)c1ccc(-c2noc(CCC(=O)NCC3CCCO3)n2)cc1 (centres undefined) | < 3 µM | < 3 | < 10 | < 10 µM | < 10 | < 10 | – | > 99 | > 99
12 | CCOC(=O)c1cccc(NC(=O)/C=C/c2ccc3c(c2)OCO3)c1 | – | 42.7 | > 99 | inactive | 18.6 | 14.7 | inactive | 25.4 | 27.5
13 | COc1ccc(CNC(=O)c2nc(S(=O)(=O)Cc3ccccc3)ncc2Cl)cc1 | inactive | 29.8 | 31.1 | 8.83 µM | 8.77 | 8.9 | 27 µM | 28.1 | 26
14 | Cc1c(CCC(=O)N2CCC(C(=O)O)(c3ccccc3)CC2)c(=O)oc2cc3oc4c(c3cc12)CCCC4 | 3.13 µM | 3.77 | 2.49 | 1.41 µM | 1.57 | 1.24 | 5.97 µM | 7.31 | 4.63
15 | COC(=O)c1cccc(NC(=O)NC(=O)c2ccccc2Cl)c1 | – | 17.6 | > 99 | 7.56 µM | 7.45 | 7.66 | – | > 99 | > 99
16 | CC(C)(C)c1ccc(-c2noc(CCC(=O)Nc3cccnc3)n2)cc1 | < 0.3 µM | < 1 | < 0.3 | < 1 µM | < 1 | < 1 | 64.2 µM | 78.9 | 49.5
17 | CC1(C)CC[C@]2(C(=O)O)CC[C@]3(C)C(=CC[C@@H]4[C@@]5(C)CC[C@H](O[C@@H]6O[C@H](C(=O)O)[C@@H](O)[C@H](O[C@@H]7OC[C@H](O)[C@H](O)[C@H]7O)[C@H]6O)C(C)(C)[C@@H]5CC[C@]43C)[C@@H]2C1 | – | > 99 | 16.2 | inactive | 14.3 | 14.4 | inactive | 15.4 | 15.7
18 | COC(=O)COc1ccc(-c2nccc(-c3ccc(Br)cc3)n2)cc1 | – | 6.31 | > 99 | 7.51 µM | 7.55 | 7.47 | – | > 99 | > 99
